Here are results for two compounds from patent US20080044358A1, “METHODS FOR LYMPH SYSTEM IMAGING” (priority 2006, published 2008).

Test [1] deals with guinea pigs with stimulated (enlarged) popliteal lymph nodes. The note with it: for ratio of signal intensity lymph node to muscle / % signal enhancement popliteal lymph node: 0.05 mmol/kg i.v. bolus; for % signal enhancement popliteal lymph node: T1-weighted MR 1.5 T. The protocol:
Female guinea pigs (370-450 g, n=3) had their lymph nodes stimulated by egg yolk emulsion (0.1 mL) intramuscularly in the thigh and lower legs on six days. MS-325 (0.05 mmol/kg) was administered as an i.v. bolus
MR system: Head scanner (Allegra, 1.5 Tesla; Siemens AG, Erlangen, Germany), T1-weighted sequence (T1-TSE, TR/TE 666/12 ms, slice thickness 1.1 mm, acquisition time 3:49).
Imaging and analysis: The animals were imaged prior to contrast agent administration and 1, 15, 30, 60, 90, 120, and […] post injection. The percent signal intensity enhancement was calculated in the popliteal lymph nodes and in surrounding muscle. The ratio of signal intensity between the lymph node and the surrounding muscle was also determined.

For test [2], the system named is VX2 tumor bearing rabbits, metastatic iliacal lymph nodes. Description: MR imaging of lymph node metastases in VX2 tumor rabbit model after intravenous injection. The class given is in vivo, New Zealand White rabbits. The note with it: for delineation / differentiation of functional and metastatic lymph node tissue: i.v., MS-325 0.05 mmol Gd/kg, Gd-DTPA 0.2 mmol Gd/kg, intraindividual comparison. The protocol: New Zealand White rabbits (3-4 kg, n=6) were inoculated intramuscularly into the thigh with 2 to 3 pieces (1×1 mm) of VX2 carcinoma cells to produce metastases in […] nodes. The imaging experiments were performed 3 to 6 weeks after the injection of tumor cells. […] Contrast agents: […] Imaging: Intraindividual comparison of lymphographic effects in […] nodes. day 1: Gd-DTPA (5 to 120 minutes p.i.). day 2: […] Assessment of technical success and quality of MR imaging, and detection of lymph node metastases. Histology: Microscopic examination after H/E staining; correlation with MR findings.

The mark [3] stands for this setting: 0 min post injection (prior to contrast agent).
The mark [4] stands for this setting: 5 to 15 min after intravenous injection, 0.05 mmol Gd/kg body weight.

Structures are written as SMILES. Read-outs that look alike come from different tables or passages of the source.

With `O=C([O-])CN(CCN(CC(=O)[O-])C[C@H](COP(=O)([O-])OC1CCC(c2ccccc2)(c2ccccc2)CC1)N(CC(=O)[O-])CC(=O)[O-])CC(=O)[O-].[Gd+3].[H+].[H+].[H+]` [MS-325], the “ratio of signal intensity lymph node to muscle” value came out at 1.2 ± 0.1 in test [1] (setting [3]); 1.6 ± 0.1 in test [1] (1 min post injection); 1.4 ± 0.1 in test [1] (15 min post injection); 1.4 ± 0.1 in test [1] (30 min post injection); 1.3 ± 0.1 in test [1] (60 min post injection); 1.3 ± 0.1 in test [1] (90 min post injection). The “ratio of signal intensity lymph node to muscle” value in test [1] (120 min post injection) came to 1.3 ± 0.1; in test [1] (2440 min post injection), 1.1 ± 0.2. Besides, the “% signal enhancement popliteal lymph node” value is recorded as 0 ± 0% in test [1] (setting [3]); 87 ± 11% in test [1] (1 min post injection); 67 ± 11% in test [1] (15 min post injection); 57 ± 6% in test [1] (30 min post injection); 45 ± 6% in test [1] (60 min post injection); 37 ± 4% in test [1] (90 min post injection). Further, the “% signal enhancement popliteal lymph node” value in test [1] (120 min post injection) is 31 ± 6%; in test [1] (2440 min post injection), −8 ± 14%. Moreover, the “signal and contrast after 24 hours” value in test [1] (after 24 hours, 0.05 mmol/kg) is given as “returned to baseline levels”. Also, the “contrast between the lymph node and the surrounding muscle” value in test [1] (after injection, 0.05 mmol/kg) is listed as “increased”. In addition, the “enhancement of stimulated (enlarged) lymph nodes” value in test [1] (after injection, 0.05 mmol/kg) was “positive and persistent enhancement”. Besides, in test [2] (setting [4]), the “appearance of the metastases (FIGS. 1 and 2, coronal MR images)” value is listed as “remains dark”. For the same compound, the “enhancement in the functional lymph node tissue (FIGS. 1 and 2, coronal MR images)” value in test [2] (setting [4]) is “bright and homogeneous enhancement”. Also, the “enhancement of the metastatic tissue” value in test [2] (after intravenous injection, 0.05 mmol Gd/kg, T1-weighted MR) is recorded as “only a slight enhancement”. In addition, the “signal increase in the functional lymph node tissue” value in test [2] (between 5 and 30 min after intravenous injection, 0.05 mmol Gd/kg, T1-weighted MR) was “rapid and strong signal increase”. The “delineation / differentiation of functional and metastatic lymph node tissue” value in test [2] is reported as “excellent delineation of the lymph node metastases”.
As for `O=C([O-])CN(CCN(CC(=O)[O-])CC(=O)O)CCN(CC(=O)[O-])CC(=O)O.[Gd+3]` [Gd-DTPA, reference compound], in test [2] (after intravenous injection, 0.2 mmol Gd/kg, T1-weighted MR), the “enhancement in the whole lymph node” value was “only a slight and inhomogeneous enhancement”. Moreover, the “delineation / differentiation of functional and metastatic lymph node tissue” value in test [2] is “does not allow an effective differentiation”.
